In patent US11779585B2 (priority 2020, dated 2023):
Where “and” joins values, the source holds several entries; their conditions need not be identical. Identical values can stand only once. Like-named read-outs stand apart in the source and are kept apart here.

Assays:
[1] = African green monkeys, 1.6 mg/kg × 14 days, total dose 22.4; cited from earlier work
SARS-CoV-2 [2] = experiment: SARS-CoV-2 infection of VeroE6 cells, 48 hours, MOI 0.012; assay type: cell-based
MERS-CoV Jordan virus = assay type: cell-based; conditions: at a concentration of 0.1 μM, FIG. 1
[3] = Dogs, cited from earlier work
SARS-CoV-2 [4] = experiment: SARS-CoV-2 infection of Calu3 human lung cells, 72 hours, MOI 2; assay type: cell-based; conditions: Severe acute respiratory syndrome coronavirus 2, Calu-3, read-out: Efficacy IC90
[5] = Rats, cited from earlier work
SARS-CoV2 = experiment: microbe, parasite or virus in culture; assay type: cell-based, SARS-CoV-2; conditions: for inhibition at 0.075 µM: Severe acute respiratory syndrome coronavirus 2, Vero C1008, 0.075 μM; for inhibition at 0.15 µM: Severe acute respiratory syndrome coronavirus 2, Vero C1008, 0.15 μM; for inhibition at 0.3 µM: Severe acute respiratory syndrome coronavirus 2, Vero C1008, 0.3 μM; for inhibition at 0.6 µM: Severe acute respiratory syndrome coronavirus 2, Vero C1008, 0.6 μM
[6] = cited from earlier work
[7] = Mice, cited from earlier work
[8] = cited from earlier work; remark: listed apart in the source
[9] = 0.15 μM, title MOI 0.6 (text MOI 1.3), Plate 1
[10] = 0.3 μM, title MOI 0.6 (text MOI 1.3), Plate 1
[11] = title MOI 0.6 (text MOI 1.3), Plate 1
[12] = title MOI 0.6 (text MOI 1.3), Plate 2

## NC(=O)c1cn([C@@H]2O[C@H](CO)[C@@H](O)[C@H]2O)c2ncnc(N)c12 [Oya1, 4-amino-7-((2R,3R,4S,5R)-3,4-dihydroxy-5-(hydroxymethyl)tetrahydrofuran-2-yl)-7H-pyrrolo[2,3-d]pyrimidine-5-carboxamide]
[1]
  Effect: lethal
SARS-CoV-2 [2]; Severe acute respiratory syndrome coronavirus 2, Vero C1008, VeroE6, read-out: Efficacy IC90
  IC90: 55 nM and 0.017 µg/mL
SARS-CoV-2 [2]; cells with highest infection rate (FIGS. 17A-17B: VeroE6, Calu3)
  fold more effective against SARS-CoV-2 than Remdesivir: > 47 fold
MERS-CoV Jordan virus
  inhibition of the MERS-CoV RNA polymerase: approximately 100%
[3]; × 14 days
  LD50, multi dose: 0.3 × 14 days mg/kg
[3]
  LD50, single dose: 2.5 mg/kg
  LD50, total dose (multi dose): 4.2 mg/kg
SARS-CoV-2 [4]
  IC90: 180 nM and 0.056 µg/mL
[5]; × 24 days
  LD50, multi dose: 0.05 × 24 days mg/kg
[5]
  LD50, single dose: 1.2 mg/kg
  LD50, total dose (multi dose): 1.2 mg/kg
Vero E6 cells; 0.0047 μM, MOI 0.6, Plate 1
  Cytotoxicity: −3.314% and −2.167% and −3.385%
Vero E6 cells; 0.0047 μM, MOI 0.6, Plate 2
  Cytotoxicity: −3.314% and −2.167% and −3.385%
Vero E6 cells; 0.0094 μM, MOI 0.6, Plate 1
  Cytotoxicity: −0.2353% and −1.9307% and −0.5813%
Vero E6 cells; 0.0094 μM, MOI 0.6, Plate 2
  Cytotoxicity: −0.2353% and −1.9307% and −0.5813%
Vero E6 cells; 0.0188 μM, MOI 0.6, Plate 1
  Cytotoxicity: −0.5761% and 5.048% and 2.474%
Vero E6 cells; 0.0188 μM, MOI 0.6, Plate 2
  Cytotoxicity: −0.5761% and 5.048% and 2.474%
Vero E6 cells; 0.0375 μM, MOI 0.6, Plate 1
  Cytotoxicity: 14.23% and 14.79% and 16.69%
Vero E6 cells; 0.0375 μM, MOI 0.6, Plate 2
  Cytotoxicity: 14.23% and 14.79% and 16.69%
Vero E6 cells; 0.075 μM, MOI 0.6, Plate 1
  Cytotoxicity: 29.56% and 33.64% and 33.6%
Vero E6 cells; 0.075 μM, MOI 0.6, Plate 2
  Cytotoxicity: 29.56% and 33.64% and 33.6%
Vero E6 cells; 0.15 μM, MOI 0.6, Plate 1
  Cytotoxicity: 49.52% and 51.36% and 51.37%
Vero E6 cells; 0.15 μM, MOI 0.6, Plate 2
  Cytotoxicity: 49.52% and 51.36% and 51.37%
Vero E6 cells; [9]
  Cytotoxicity: 49.52% and 51.36% and 51.37%
Vero E6 cells; 0.3 μM, MOI 0.6, Plate 1
  Cytotoxicity: 66.57% and 64.56% and 64.1314%
Vero E6 cells; 0.3 μM, MOI 0.6, Plate 2
  Cytotoxicity: 66.57% and 64.56% and 64.1314%
Vero E6 cells; [10]
  Cytotoxicity: 66.57%
Vero E6 cells; 0.6 μM, MOI 0.6, Plate 1
  Cytotoxicity: 79.78% and 76.76% and 75.88%
Vero E6 cells; 0.6 μM, MOI 0.6, Plate 2
  Cytotoxicity: 79.78% and 76.76% and 75.88%
Vero E6 cells; 8 tests against SARS-CoV-2
  toxicity margin or selectivity index, high: 8.2
  toxicity margin or selectivity index, low: 3.1
Vero E6 cells; 8 tests against SARS-CoV-2, average
  average toxicity margin or selectivity index: 4.8
SARS-CoV2
  fold increase in activity over chlorpromazine HCl: 1000 fold
SARS-CoV2; 0.0047 μM, MOI 0.6, Plate 2
  Inhibition: 1.733% and −3.975% and 4.262%
SARS-CoV2; 0.0047 μM, title MOI 0.6 (text MOI 1.3), Plate 2
  Inhibition: −0.7543% and −8.894% and 0.3653%
SARS-CoV2; 0.0094 μM, MOI 0.2, Plate 1
  Inhibition: 24.36% and 12.99%
SARS-CoV2; 0.0094 μM, MOI 0.4, Plate 1
  Inhibition: 9.365% and 6.857% and 1.875%
SARS-CoV2; 0.0094 μM, title MOI 0.6 (text MOI 1.3), Plate 2
  Inhibition: 5.994% and 7.809% and 12.95%
SARS-CoV2; 0.0188 μM, title MOI 0.6 (text MOI 1.3), Plate 1
  Inhibition: 4.894% and 1.871% and −1.054%
SARS-CoV2; 0.03 μM vs 1.4 μM
  fold better IC50 than GS-441524: 47 fold
SARS-CoV2; 0.0375 μM, MOI 0.2, Plate 2
  Inhibition: 31.89% and 46.61%
SARS-CoV2; 0.0375 μM, MOI 0.4, Plate 1
  Inhibition: 12.31% and 18.82%
SARS-CoV2; 0.0375 μM, MOI 0.6, Plate 1
  Inhibition: 27.4624% and 39.74% and 52.32%
SARS-CoV2; 0.0375 μM, MOI 0.6, Plate 2
  Inhibition: 59.38% and 43.5% and 83.02%
SARS-CoV2; 0.075 μM, MOI 0.2, Plate 1
  Inhibition: 81.55% and 79.85%
SARS-CoV2; 0.075 μM, MOI 0.2, Plate 2
  Inhibition: 88.5915% and 83.72% and 67.19%
SARS-CoV2; 0.075 μM, MOI 0.4, Plate 1
  Inhibition: 50.83% and 69.6% and 36.13%
SARS-CoV2; 0.075 μM, MOI 0.4, Plate 2
  Inhibition: 24.91% and 28.1512%
SARS-CoV2; 0.075 μM, MOI 0.6, Plate 1
  Inhibition: 98.66% and 98.3%
SARS-CoV2; 0.075 μM, MOI 0.6, Plate 2
  Inhibition: 97.59%
SARS-CoV2; 0.075 μM, title MOI 0.6 (text MOI 1.3), Plate 1
  Inhibition: 100.0792% and 80.42%
SARS-CoV2; 0.075 μM, title MOI 0.6 (text MOI 1.3), Plate 2
  Inhibition: 99.3891% and 97.8301%
SARS-CoV2; 0.15 μM, MOI 0.2, Plate 1
  Inhibition: 99.12% and 95.59%
SARS-CoV2; 0.15 μM, MOI 0.2, Plate 2
  Inhibition: 99.22%
SARS-CoV2; 0.15 μM, MOI 0.4, Plate 1
  Inhibition: 98.7% and 94.16%
SARS-CoV2; 0.15 μM, MOI 0.4, Plate 2
  Inhibition: 86.8%
SARS-CoV2; 0.15 μM, MOI 0.6, Plate 1
  Inhibition: 99.78% and 99.74%
SARS-CoV2; [9]
  Inhibition: 100.3795%
SARS-CoV2; 0.3 μM, MOI 0.2, Plate 1
  Inhibition: 99.69%
SARS-CoV2; 0.3 μM, MOI 0.2, Plate 2
  Inhibition: 99.99%
SARS-CoV2; 0.3 μM, MOI 0.4, Plate 1
  Inhibition: 99.72%
SARS-CoV2; 0.3 μM, MOI 0.6, Plate 1
  Inhibition: 85.36%
SARS-CoV2; [10]
  Inhibition: 97.59%
SARS-CoV2; 0.6 μM, MOI 0.2, Plate 1
  Inhibition: 99.15%
SARS-CoV2; 0.6 μM, MOI 0.6, Plate 2
  Inhibition: 96.04%
SARS-CoV2; Oya1 0.03 μM vs remdesivir 0.77 μM (Wang et al.)
  fold greater efficacy (IC50) than remdesivir: 25 fold
SARS-CoV2; Severe acute respiratory syndrome coronavirus 2, Vero C1008
  IC50: 30 nM
SARS-CoV2; Severe acute respiratory syndrome coronavirus 2, Vero C1008, 0.0047 μM, MOI 0.4, Plate 2
  inhibition at 0.0047 µM: 8.02%
SARS-CoV2; Severe acute respiratory syndrome coronavirus 2, Vero C1008, 0.0094 μM, MOI 0.4, Plate 2
  inhibition at 0.0094 µM: 15.2%
SARS-CoV2; Severe acute respiratory syndrome coronavirus 2, Vero C1008, 0.0188 μM, MOI 0.4, Plate 2
  inhibition at 0.0188 µM: 15.6%
SARS-CoV2; Severe acute respiratory syndrome coronavirus 2, Vero C1008, 0.0375 μM, MOI 0.4, Plate 1
  inhibition at 0.0375 µM: 10.9%
SARS-CoV2; MOI 0.2, Plate 1
  inhibition at 0.075 µM: 67.8%
  inhibition at 0.15 µM: 97.2%
  inhibition at 0.3 µM: 99.9%
  inhibition at 0.6 µM: 100%
SARS-CoV2; MOI 0.4, Plate 2
  inhibition at 0.075 µM: 19.8%
  inhibition at 0.15 µM: 83.4%
  inhibition at 0.3 µM: 91.4%
  inhibition at 0.6 µM: 67.4%
SARS-CoV2; MOI 0.2, Plate 2
  inhibition at 0.15 µM: 96%
  inhibition at 0.3 µM: 100%
  inhibition at 0.6 µM: 99.7%
SARS-CoV2; MOI 0.4, Plate 1
  inhibition at 0.15 µM: 95.9%
  inhibition at 0.3 µM: 96.9%
  inhibition at 0.6 µM: 100%
SARS-CoV2; MOI 0.6, Plate 1
  inhibition at 0.15 µM: 98.6%
  inhibition at 0.3 µM: 100%
  inhibition at 0.6 µM: 100%
SARS-CoV2; MOI 0.6, Plate 2
  inhibition at 0.15 µM: 99.7%
  inhibition at 0.3 µM: 100%
  inhibition at 0.6 µM: 99.7%
SARS-CoV2; [11]
  inhibition at 0.15 µM: 101%
  inhibition at 0.3 µM: 100%
  inhibition at 0.6 µM: 101%
SARS-CoV2; [12]
  inhibition at 0.15 µM: 101%
  inhibition at 0.3 µM: 101%
  inhibition at 0.6 µM: 101%
[6]; Phase I clinical trials, humans
  anti-cancer activity: inactive against cancer
[6]; Phase I clinical trials
  tolerability in humans: well tolerated
[6]; daily dosing × 41
  Reported Safe Clinical Dosing: 0.12 mg/kg/day × 41
[6]; humans, Cavins 1967
  MTD (not reached at highest single dose tested): > 0.3 mg/kg
[6]; humans, daily, highest dosing regimen 120 μg/kg/day × 41 days
  Observed toxic effect: 0
[6]; humans, thrice weekly, highest dosing regimen 50-250 μg/kg/day × 45 days
  Observed toxic effect: 0
[6]; humans, weekly, highest dosing regimen 200 μg/kg/day × 150 days
  Observed toxic effect: 0
[7]; × 9 days
  LD50, multi dose: 0.5 × 9 days mg/kg
[7]
  LD50, single dose: 4 mg/kg
  LD50, total dose (multi dose): 4.5 mg/kg
[8]; Mice
  half-life in blood: 50 h
[8]; mice, following 12 days post injection
  cleared: 40%
